These results are taken from ChEMBL document CHEMBL1177642, “Synthesis and antibacterial studies of binaphthyl-based tripeptoids. Part 2” (2010).

The term MIC50 denotes the lowest concentration that inhibits either 50% of growth or 50% of the strains tested, depending on the study. Higher therefore signals weaker potency.

In brackets after ≈: the same amount, converted by molar mass.

What all share (format): functional
For one test, the system named is Staphylococcus aureus. In words: Antimicrobial activity against methicillin-resistant Staphylococcus aureus ATCC 43300 after overnight incubation.
The test system of test [1] is Enterococcus faecium. In words: Antimicrobial activity against vancomycin-resistant Enterococcus faecium 243 after overnight incubation.
The test system of test [2] is Enterococcus faecium. In words: Antimicrobial activity against vancomycin-resistant Enterococcus faecium 449 after overnight incubation.
Test [3] concerns Enterococcus faecium. In words: Antimicrobial activity against vancomycin-resistant Enterococcus faecium 820 after overnight incubation.
Test [4] deals with Enterococcus faecium. In words: Antimicrobial activity against vancomycin-resistant Enterococcus faecium 987 after overnight incubation.

As to `C=CCOc1ccc2ccccc2c1-c1c(OCC(=O)N[C@H](CCCCN)C(=O)N[C@H](CCCNC(=N)N)C(=O)N[C@@H](CC=C)C(=O)OCc2ccccc2)ccc2ccccc12.Cl.Cl`, the MIC50 turned out to be 1.96 µg/mL with Staphylococcus aureus; 31.3 µg/mL against Enterococcus faecium [1]; 31.3 µg/mL against Enterococcus faecium [2]; 31.3 µg/mL against Enterococcus faecium [3]; 31.3 µg/mL against Enterococcus faecium [4].

In the case of `C=CC[C@H](NC(=O)[C@@H](CCCNC(=N)N)NC(=O)[C@@H](CCCCN)NC(=O)COc1ccc2ccccc2c1-c1c(OCc2ccccc2)ccc2ccccc12)C(=O)OCc1ccccc1.Cl.Cl`, the MIC50 with Staphylococcus aureus stood at 3.9 µg/mL; in the test with Enterococcus faecium [1] it was 62.5 µg/mL; against Enterococcus faecium [2], 62.5 µg/mL; against Enterococcus faecium [3], 62.5 µg/mL; with Enterococcus faecium [4] it was 125 µg/mL.

Consider `C=CC[C@H](NC(=O)[C@@H](CCCNC(=N)N)NC(=O)[C@@H](CCCCN)NC(=O)COc1ccc2ccccc2c1-c1c(OC)ccc2ccccc12)C(=O)OCc1ccccc1.Cl.Cl`, for which the MIC50 in the test on Staphylococcus aureus came to 7.8 µg/mL; against Enterococcus faecium [1], 125 µg/mL; with Enterococcus faecium [2], 62.5 µg/mL; in the test with Enterococcus faecium [3], 62.5 µg/mL; against Enterococcus faecium [4], 125 µg/mL.

Consider `C=CC[C@H](NC(=O)[C@@H](CCCNC(=N)N)NC(=O)[C@@H](CCCCN)NC(=O)COc1ccc2ccccc2c1-c1c(OCCCCC)ccc2ccccc12)C(=O)OCc1ccccc1.Cl.Cl`, for which the MIC50 amounted to 3.9 µg/mL in the test with Staphylococcus aureus; 62.5 µg/mL against Enterococcus faecium [1]; 62.5 µg/mL against Enterococcus faecium [2]; 31.3 µg/mL with Enterococcus faecium [3]; 62.5 µg/mL in the test with Enterococcus faecium [4].

In the case of `C=CC[C@H](NC(=O)[C@@H](CCCNC(=N)N)NC(=O)[C@@H](CCCCN)NC(=O)COc1ccc2ccccc2c1-c1c(OCC(C)C)ccc2ccccc12)C(=O)OCc1ccccc1.Cl.Cl`, the MIC50 was 1.95 µg/mL in the test on Staphylococcus aureus; 62.5 µg/mL in the test on Enterococcus faecium [1]; 52.1 µg/mL in the test with Enterococcus faecium [2]; 31.3 µg/mL against Enterococcus faecium [3]; 62.5 µg/mL with Enterococcus faecium [4].

Take `C=CC[C@H](NC(=O)[C@@H](CCCNC(=N)N)NC(=O)[C@@H](CCCCN)NC(=O)COc1ccc2ccccc2c1-c1c(OCC(C)(C)C)ccc2ccccc12)C(=O)OCc1ccccc1.Cl.Cl`: the MIC50 amounted to 3.9 µg/mL in the test on Staphylococcus aureus; 62.5 µg/mL with Enterococcus faecium [1]; 62.5 µg/mL in the test on Enterococcus faecium [2]; 31.3 µg/mL in the test on Enterococcus faecium [3]; 83.3 µg/mL in the test on Enterococcus faecium [4].

Turning to `C=CC[C@H](NC(=O)[C@@H](CCCNC(=N)N)NC(=O)[C@@H](CCCCN)NC(=O)COc1ccc2ccccc2c1-c1c(OCC2CCCCC2)ccc2ccccc12)C(=O)OCc1ccccc1.Cl.Cl`, the MIC50 against Staphylococcus aureus turned out to be 3.9 µg/mL; against Enterococcus faecium [1], 62.5 µg/mL; in the test on Enterococcus faecium [2], 62.5 µg/mL; with Enterococcus faecium [3] it was 31.3 µg/mL; in the test on Enterococcus faecium [4], 62.5 µg/mL.

As to `C[C@H](NC(=O)[C@@H](CCCNC(=N)N)NC(=O)[C@@H](CCCCN)NC(=O)COc1ccc2ccccc2c1-c1c(O)ccc2ccccc12)C(=O)OCc1ccccc1.Cl.Cl`, the MIC50 amounted to 7.8 µg/mL against Staphylococcus aureus; 125 µg/mL in the test on Enterococcus faecium [1]; 52.1 µg/mL against Enterococcus faecium [2]; 62.5 µg/mL against Enterococcus faecium [3]; 125 µg/mL with Enterococcus faecium [4].

Turning to `C=CC[C@H](NC(=O)[C@@H](CCCNC(=N)N)NC(=O)[C@@H](CCCCN)NC(=O)COc1ccc2ccccc2c1-c1c(OCCCc2ccccc2)ccc2ccccc12)C(=O)OCc1ccccc1.Cl.Cl`, the MIC50 in the test with Staphylococcus aureus was 3.9 µg/mL; in the test on Enterococcus faecium [1], 62.5 µg/mL; against Enterococcus faecium [2], 31.3 µg/mL; in the test with Enterococcus faecium [3], 31.3 µg/mL; in the test with Enterococcus faecium [4] it was 62.5 µg/mL.

Turning to `CCCCCCCCOc1ccc2ccccc2c1-c1c(OCC(=O)N[C@H](CCCCN)C(=O)N[C@H](CCCNC(=N)N)C(=O)N[C@@H](CC(C)C)C(=O)OCc2ccccc2)ccc2ccccc12.Cl.Cl`, the MIC50 with Staphylococcus aureus came out at 13 µg/mL; with Enterococcus faecium [1], 125 µg/mL; in the test with Enterococcus faecium [2], 125 µg/mL; against Enterococcus faecium [3], 62.5 µg/mL; in the test with Enterococcus faecium [4] it was 125 µg/mL.

`CC(C)CCOc1ccc2ccccc2c1-c1c(OCC(=O)N[C@H](CCCCN)C(=O)N[C@H](CCCNC(=N)N)C(=O)N[C@@H](CC(C)C)C(=O)Oc2ccccc2)ccc2ccccc12.Cl.Cl`: the MIC50 against Staphylococcus aureus was 3.9 µg/mL; against Enterococcus faecium [1], 15.6 µg/mL; against Enterococcus faecium [2] it was 15.6 µg/mL; with Enterococcus faecium [3] it was 7.8 µg/mL; with Enterococcus faecium [4], 15.6 µg/mL.

In the case of `CC(C)CCOc1ccccc1-c1ccccc1OCC(=O)N[C@H](CCCCN)C(=O)N[C@H](CCCNC(=N)N)C(=O)N[C@@H](CC(C)C)C(=O)OCc1ccccc1.Cl.Cl`, the MIC50 in the test on Staphylococcus aureus came to 1.95 µg/mL; in the test on Enterococcus faecium [1], 31.3 µg/mL; in the test on Enterococcus faecium [2], 31.3 µg/mL; against Enterococcus faecium [3] it was 31.3 µg/mL; in the test on Enterococcus faecium [4], 31.3 µg/mL.

Take `C=CCOc1ccc2ccccc2c1-c1c(OCC(=O)OCC)ccc2ccccc12`: the MIC50 is 3.9 µg/mL (≈ 9.45 µM) in the test with Staphylococcus aureus; 31.3 µg/mL (≈ 75.9 µM) against Enterococcus faecium [1]; 31.3 µg/mL (≈ 75.9 µM) in the test with Enterococcus faecium [2]; 31.3 µg/mL (≈ 75.9 µM) in the test with Enterococcus faecium [3]; 62.5 µg/mL (≈ 152 µM) against Enterococcus faecium [4].

Take `C=CC[C@H](NC(=O)[C@@H](CCCNC(=N)N)NC(=O)[C@@H](CCCCN)NC(=O)COc1ccc2ccccc2c1-c1c(OCC2CCC2)ccc2ccccc12)C(=O)OCc1ccccc1.Cl.Cl`: the MIC50 with Staphylococcus aureus came to 3.9 µg/mL; against Enterococcus faecium [1] it was 62.5 µg/mL; against Enterococcus faecium [2], 52.1 µg/mL; against Enterococcus faecium [3], 31.3 µg/mL; against Enterococcus faecium [4], 62.5 µg/mL.

As for `CC(C)C[C@H](NC(=O)[C@@H](CCCNC(=N)N)NC(=O)[C@@H](CCCCN)NC(=O)COc1ccc2ccccc2c1-c1c(OCC#N)ccc2ccccc12)C(=O)OCc1ccccc1.Cl.Cl`, the MIC50 was 3.9 µg/mL in the test with Staphylococcus aureus; 62.5 µg/mL against Enterococcus faecium [1]; 31.3 µg/mL in the test with Enterococcus faecium [2]; 31.3 µg/mL against Enterococcus faecium [3]; 62.5 µg/mL against Enterococcus faecium [4].

For `CC(C)C[C@H](NC(=O)[C@@H](CCCNC(=N)N)NC(=O)[C@@H](CCCCN)NC(=O)COc1ccc2ccccc2c1-c1c(OCCC2CC2)ccc2ccccc12)C(=O)OCc1ccccc1.Cl.Cl`, the MIC50 in the test on Staphylococcus aureus stood at 3.9 µg/mL; against Enterococcus faecium [1], 125 µg/mL; with Enterococcus faecium [2], 31.3 µg/mL; against Enterococcus faecium [3], 62.5 µg/mL; in the test on Enterococcus faecium [4], 62.5 µg/mL.

Take `CC(C)C[C@H](NC(=O)[C@@H](CCCNC(=N)N)NC(=O)[C@@H](CCCCN)NC(=O)COc1ccc2ccccc2c1-c1c(OCCc2ccccc2)ccc2ccccc12)C(=O)OCc1ccccc1.Cl.Cl`: the MIC50 against Staphylococcus aureus worked out at 5.2 µg/mL; against Enterococcus faecium [1] it was 31.3 µg/mL; in the test on Enterococcus faecium [2], 31.3 µg/mL; against Enterococcus faecium [3] it was 15.6 µg/mL; against Enterococcus faecium [4], 31.3 µg/mL.

Take `COCCOc1ccc2ccccc2c1-c1c(OCC(=O)N[C@H](CCCCN)C(=O)N[C@H](CCCNC(=N)N)C(=O)N[C@@H](CC(C)C)C(=O)OCc2ccccc2)ccc2ccccc12.Cl.Cl`: the MIC50 against Staphylococcus aureus stood at 3.9 µg/mL; with Enterococcus faecium [1], 125 µg/mL; against Enterococcus faecium [2] it was 31.3 µg/mL; against Enterococcus faecium [3], 62.5 µg/mL; with Enterococcus faecium [4], 62.5 µg/mL.

As to `CN[C@H](CC(C)C)C(=O)N[C@H]1C(=O)N[C@@H](CC(N)=O)C(=O)N[C@H]2C(=O)N[C@H]3C(=O)N[C@H](C(=O)N[C@H](C(=O)O)c4cc(O)cc(O)c4-c4cc3ccc4O)[C@H](O)c3ccc(c(Cl)c3)Oc3cc2cc(c3O[C@@H]2O[C@H](CO)[C@@H](O)[C@H](O)[C@H]2O[C@H]2C[C@](C)(N)[C@H](O)[C@H](C)O2)Oc2ccc(cc2Cl)[C@H]1O` [VANCOMYCIN], the MIC50 with Staphylococcus aureus is 1.95 µg/mL (≈ 1.35 µM); in the test on Enterococcus faecium [1] it was 1.95 µg/mL (≈ 1.35 µM); against Enterococcus faecium [2] it was 62.5 µg/mL (≈ 43.1 µM); against Enterococcus faecium [3], over 125 µg/mL; against Enterococcus faecium [4], under 0.98 µg/mL.
